{
  "source": "patent US20260167673A1",
  "about": "“NOVEL POLYPEPTIDE, POLYPEPTIDE DERIVATIVE AND USE THEREOF” (NANJING ANJI BIOTECHNOLOGY CO., LTD., priority 2023, published 2026)",
  "key": {"[1]": {"tested_on": "human ovarian cancer Skvo3 cells", "assay": "Transwell metastasis inhibition, Skvo3", "type": "cell-based", "conditions": "48 h", "method": "(§1) Melanoma, cervical cancer, ovarian cancer, liver cancer, and lung cancer cells were seeded into transwell chambers, with 100 μL per well. Different doses of the HMMW micropeptide and the novel polypeptide HMMW15-51 were added to each chamber as a treatment group, while no drug was added to a blank group. Then, 0.6 mL of a complete culture medium containing 10% FBS was added to the lower chambers of the transwell to stimulate cell metastasis, and the cells were cultured at 5% CO2 and 37° C. for 48 h. The culture solution was discarded from the wells. The cells were fixed with methanol at room temperature for 30 min, stained with 0.1% crystal violet at room temperature for 10 min, and rinsed with clean water. The upper layer nonmetastatic cells were wiped off with a cotton swab. The cells were observed under a microscope, and four fields of view were selected to take photos and count the cells. A metastasis inhibition (MI) was calculated according to a formula: […]\n(§2) where Ntest represents the number of cell metastases in the treatment group, and Ncontrol represents the number of cell metastases in the blank control group.\n(§3) Data was presented as mean±SD, and GraphPad Prism 5.0 statistical software was used."}, "[2]": {"tested_on": "human esophageal cancer cells TE-13", "assay": "CCK8 proliferation inhibition, TE-13", "type": "cell-based", "conditions": "TE-13, 50 μM, 48 h", "method": "(§4) Incubation was continued for 4 h in a cell incubator, an absorbance was measured at 450 nm, and a proliferation inhibition was calculated. Data was presented as mean±SD, and GraphPad Prism 5.0 statistical software was used. A t-test was used for comparison between two groups, while One-way Anova (Dunnett) was used for comparison among a plurality of groups."}, "[3]": {"tested_on": "human acute lymphoblastic leukemia cells CEM/C1", "assay": "CCK8 proliferation inhibition, CEM/C1", "type": "cell-based", "conditions": "CEM/C1, 50 μM, 48 h", "method": "as §4"}, "[4]": {"tested_on": "subcutaneous transplanted tumor model of tongue squamous cell carcinoma cells CAL27", "assay": "CAL27 subcutaneous transplanted tumor model (Example 7)", "type": "in vivo, BALB/c nude mice", "conditions": "2.7 μM/kg, FIG. 10", "method": "(1) A large number of human tongue squamous cell carcinoma CAL27 cells were cultured and digested with a 0.25% trypsin solution. After digestion was terminated, a cell suspension was centrifuged at 1000 rpm for 5 min, and the cells were resuspended in a serum-free DMEM culture medium and counted. The cell concentration was adjusted to 5×10^7 cells/mL.\n(2) BALB/c nude mice (4-6 week old, female, weighing 14-16 g, adaptively fed in an SPF animal feeding room for 1 week) were inoculated with 100 μL of cell suspensions of corresponding groups under the left axilla, with an injection volume of 5×10^6 cells/mouse;\n(3) After inoculation, the tumor growth at the inoculation sites of the nude mice was closely observed. On the 7th day after inoculation, white nodules appeared at the inoculation sites and could move subcutaneously upon touch. As the tumor tissues grew, hard tumor blocks gradually formed at the inoculation sites, and the average volume of the tumor tissues reached 80 mm^3 in about 14 days. The BALB/c nude mice were randomly divided into 3 groups (a normal saline group served as a blank control, and the dose of the micropeptide HMMW and the novel polypeptide HMMW15-51 was 2.7 μM/kg), with 10 mice in the blank group and 6 mice in each other group. […]\n(4) The volume of the transplanted tumor was measured and recorded every three days. […]"}, "[5]": {"tested_on": "human gastric cancer cells MGC-803", "assay": "CCK8 proliferation inhibition, MGC-803", "type": "cell-based", "conditions": "MGC-803, 50 μM, 48 h", "method": "as §4"}, "[6]": {"tested_on": "human laryngeal epidermoid carcinoma cells HEp2", "assay": "CCK8 proliferation inhibition, HEp2", "type": "cell-based", "conditions": "HEp2, 50 μM, 48 h", "method": "as §4"}, "[7]": {"tested_on": "human lymphoma cells Raji", "assay": "CCK8 proliferation inhibition, Raji", "type": "cell-based", "conditions": "50 μM, 48 h", "method": "as §4"}, "[8]": {"tested_on": "human papillary thyroid carcinoma cells NPPA87-1", "assay": "CCK8 proliferation inhibition, NPPA87-1", "type": "cell-based", "conditions": "NPPA87-1, 50 μM, 48 h", "method": "as §4"}, "[9]": {"tested_on": "human acute myeloid leukemia cells KG-1", "assay": "CCK8 proliferation inhibition, KG-1", "type": "cell-based", "conditions": "KG-1, 50 μM, 48 h", "method": "as §4"}, "[10]": {"tested_on": "human osteosarcoma cells MG63", "assay": "CCK8 proliferation inhibition, MG63", "type": "cell-based", "conditions": "MG63, 50 μM, 48 h", "method": "as §4"}, "[11]": {"tested_on": "human esophageal cancer cells Eca-109", "assay": "CCK8 proliferation inhibition, Eca-109", "type": "cell-based", "conditions": "Eca-109, 50 μM, 48 h", "method": "as §4"}, "[12]": {"tested_on": "human liver cancer cells HCCLM3", "assay": "CCK8 proliferation inhibition, HCCLM3", "type": "cell-based", "conditions": "HCCLM3, 50 μM, 48 h", "method": "as §4"}, "[13]": {"tested_on": "human tongue squamous cell carcinoma cells CAL27", "assay": "CCK8 proliferation inhibition, CAL27 (Example 5)", "type": "cell-based", "conditions": "CAL27, 50 μM, 48 h", "method": "as §4"}, "[14]": {"tested_on": "human prostate cancer cells PC-3", "assay": "CCK8 proliferation inhibition, PC-3", "type": "cell-based", "conditions": "PC-3, 50 μM, 48 h", "method": "as §4"}, "[15]": {"tested_on": "human kidney clear cell adenocarcinoma cells 786-O", "assay": "CCK8 proliferation inhibition, 786-O", "type": "cell-based", "conditions": "50 μM, 48 h", "method": "as §4"}, "[16]": {"tested_on": "human nasopharyngeal carcinoma cells CNE-2Z", "assay": "CCK8 proliferation inhibition, CNE-2Z", "type": "cell-based", "conditions": "50 μM, 48 h", "method": "as §4"}, "[17]": {"tested_on": "human promyelocytic leukemia cells HL60", "assay": "CCK8 proliferation inhibition, HL60", "type": "cell-based", "conditions": "HL60, 50 μM, 48 h", "method": "as §4"}, "[18]": {"tested_on": "human melanoma A375 cells", "assay": "Transwell metastasis inhibition, A375", "type": "cell-based", "conditions": "48 h", "method": "as §1, §2, §3"}},
  "note": "Marks after values point to notes of the source that are not given here. Where no end group is shown, it is not given here.",
  "data": [
    {"sequence": "MERAGVPGFSPRRSSVEAKMQSTSCSVRKSSTVTAWPAVVLLLSWGQRRGG [HMMW]", "values": [
      {"measurement": "Number of cell metastases", "setting": "[1]; Skvo3, 50 μmol/L", "result": "118 ± 26.16"},
      {"measurement": "Inhibition (%)", "setting": "[1]; Skvo3 metastasis, 50 μmol/L", "result": "89.60*** %"},
      {"measurement": "Inhibition (%)", "setting": "[2]", "result": "53.060 ± 1.911", "unit": "%"},
      {"measurement": "OD", "setting": "[2]", "result": "0.389 ± 0.016"},
      {"measurement": "Inhibition (%)", "setting": "[3]", "result": "46.518 ± 1.484", "unit": "%"},
      {"measurement": "OD", "setting": "[3]", "result": "0.630 ± 0.017"},
      {"measurement": "in vivo tumorigenicity of CAL27 cells compared with normal saline control", "setting": "[4]", "result": "significantly inhibit"},
      {"measurement": "Inhibition (%)", "setting": "[5]", "result": "41.094 ± 3.077", "unit": "%"},
      {"measurement": "OD", "setting": "[5]", "result": "0.675 ± 0.035"},
      {"measurement": "Inhibition (%)", "setting": "[6]", "result": "42.416 ± 2.236", "unit": "%"},
      {"measurement": "OD", "setting": "[6]", "result": "0.504 ± 0.020"},
      {"measurement": "Inhibition (%)", "setting": "[7]", "result": "54.560 ± 3.675", "unit": "%"},
      {"measurement": "OD", "setting": "[7]", "result": "0.576 ± 0.047"},
      {"measurement": "Inhibition (%)", "setting": "[8]", "result": "48.192 ± 2.999", "unit": "%"},
      {"measurement": "OD", "setting": "[8]", "result": "0.478 ± 0.028"},
      {"measurement": "Inhibition (%)", "setting": "[9]", "result": "37.600 ± 5.989", "unit": "%"},
      {"measurement": "OD", "setting": "[9]", "result": "0.725 ± 0.070"},
      {"measurement": "Inhibition (%)", "setting": "[10]", "result": "52.544 ± 2.562", "unit": "%"},
      {"measurement": "OD", "setting": "[10]", "result": "0.435 ± 0.024"},
      {"measurement": "Inhibition (%)", "setting": "[11]", "result": "63.071 ± 2.982", "unit": "%"},
      {"measurement": "OD", "setting": "[11]", "result": "0.350 ± 0.028"},
      {"measurement": "Inhibition (%)", "setting": "[12]", "result": "53.926 ± 7.634", "unit": "%"},
      {"measurement": "OD", "setting": "[12]", "result": "0.460 ± 0.076"},
      {"measurement": "Inhibition (%)", "setting": "[13]", "result": "67.115 ± 5.457", "unit": "%"},
      {"measurement": "OD", "setting": "[13]", "result": "0.383 ± 0.064"},
      {"measurement": "Inhibition (%)", "setting": "[14]", "result": "50.341 ± 3.864", "unit": "%"},
      {"measurement": "OD", "setting": "[14]", "result": "0.509 ± 0.040"},
      {"measurement": "Inhibition (%)", "setting": "[15]", "result": "62.624 ± 7.014", "unit": "%"},
      {"measurement": "OD", "setting": "[15]", "result": "0.413 ± 0.078"},
      {"measurement": "Inhibition (%)", "setting": "[16]", "result": "50.952 ± 4.312", "unit": "%"},
      {"measurement": "OD", "setting": "[16]", "result": "0.472 ± 0.042"},
      {"measurement": "Inhibition (%)", "setting": "[17]", "result": "47.264 ± 5.692", "unit": "%"},
      {"measurement": "OD", "setting": "[17]", "result": "0.578 ± 0.062"},
      {"measurement": "Number of cell metastases", "setting": "[18]; A375, 50 μmol/L", "result": "371 ± 13.00"},
      {"measurement": "Inhibition (%)", "setting": "[18]; A375 metastasis, 50 μmol/L", "result": "37.13*** %"}
    ]}
  ]
}
